Experimental findings from article PMC4860574, “Bafetinib (INNO-406) reverses multidrug resistance by inhibiting the efflux function of ABCB1 and ABCG2 transporters” (Scientific Reports, 2016) are described below.

The target in one experiment is T1, ABCB1 (Homo sapiens, UniProt P08183).
T1 construct: full length, wild type; cell assays in SW620/Ad300 and HEK/ABCB1
Briefly: stimulation of vanadate-sensitive ATPase activity in ABCB1 membranes. The format is biochemical. Conditions: read-out: concentration required to obtain 50% of maximal stimulation.

The target in a further experiment is T2, ABCG2 (Homo sapiens, UniProt Q9UNQ0).
T2 construct: cell assays in NCI-H460/MX20 and HEK/ABCG2-R482
T2 sequence (Q9UNQ0 1-655): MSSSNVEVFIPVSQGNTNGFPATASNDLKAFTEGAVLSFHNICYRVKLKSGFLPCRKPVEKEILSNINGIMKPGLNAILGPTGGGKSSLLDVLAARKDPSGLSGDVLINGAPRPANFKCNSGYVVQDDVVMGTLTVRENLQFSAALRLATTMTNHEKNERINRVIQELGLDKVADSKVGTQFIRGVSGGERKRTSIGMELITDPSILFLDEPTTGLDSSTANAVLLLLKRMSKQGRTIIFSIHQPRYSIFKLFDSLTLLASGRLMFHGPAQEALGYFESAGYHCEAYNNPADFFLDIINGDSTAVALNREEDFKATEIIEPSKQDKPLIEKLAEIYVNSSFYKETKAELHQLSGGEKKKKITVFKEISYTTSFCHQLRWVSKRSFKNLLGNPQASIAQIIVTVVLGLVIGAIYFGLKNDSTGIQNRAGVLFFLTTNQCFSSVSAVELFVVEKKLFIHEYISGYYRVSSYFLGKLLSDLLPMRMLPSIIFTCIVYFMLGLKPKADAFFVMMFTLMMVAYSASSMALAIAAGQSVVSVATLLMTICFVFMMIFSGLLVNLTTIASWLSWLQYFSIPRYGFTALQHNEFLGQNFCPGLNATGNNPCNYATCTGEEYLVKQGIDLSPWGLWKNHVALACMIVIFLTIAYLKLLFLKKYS
Briefly: inhibition of vanadate-sensitive ATPase activity in ABCG2 membranes. The format is biochemical. Conditions: read-out: concentration required to obtain 50% of maximal inhibition. From the text:
inhibition of vanadate-sensitive ATPase activity in ABCG2 membranes on ABCG2 | bafetinib inhibited the ATPase activity of ABCG2 in a concentration-dependent manner

T1 sequence (P08183 whole entry): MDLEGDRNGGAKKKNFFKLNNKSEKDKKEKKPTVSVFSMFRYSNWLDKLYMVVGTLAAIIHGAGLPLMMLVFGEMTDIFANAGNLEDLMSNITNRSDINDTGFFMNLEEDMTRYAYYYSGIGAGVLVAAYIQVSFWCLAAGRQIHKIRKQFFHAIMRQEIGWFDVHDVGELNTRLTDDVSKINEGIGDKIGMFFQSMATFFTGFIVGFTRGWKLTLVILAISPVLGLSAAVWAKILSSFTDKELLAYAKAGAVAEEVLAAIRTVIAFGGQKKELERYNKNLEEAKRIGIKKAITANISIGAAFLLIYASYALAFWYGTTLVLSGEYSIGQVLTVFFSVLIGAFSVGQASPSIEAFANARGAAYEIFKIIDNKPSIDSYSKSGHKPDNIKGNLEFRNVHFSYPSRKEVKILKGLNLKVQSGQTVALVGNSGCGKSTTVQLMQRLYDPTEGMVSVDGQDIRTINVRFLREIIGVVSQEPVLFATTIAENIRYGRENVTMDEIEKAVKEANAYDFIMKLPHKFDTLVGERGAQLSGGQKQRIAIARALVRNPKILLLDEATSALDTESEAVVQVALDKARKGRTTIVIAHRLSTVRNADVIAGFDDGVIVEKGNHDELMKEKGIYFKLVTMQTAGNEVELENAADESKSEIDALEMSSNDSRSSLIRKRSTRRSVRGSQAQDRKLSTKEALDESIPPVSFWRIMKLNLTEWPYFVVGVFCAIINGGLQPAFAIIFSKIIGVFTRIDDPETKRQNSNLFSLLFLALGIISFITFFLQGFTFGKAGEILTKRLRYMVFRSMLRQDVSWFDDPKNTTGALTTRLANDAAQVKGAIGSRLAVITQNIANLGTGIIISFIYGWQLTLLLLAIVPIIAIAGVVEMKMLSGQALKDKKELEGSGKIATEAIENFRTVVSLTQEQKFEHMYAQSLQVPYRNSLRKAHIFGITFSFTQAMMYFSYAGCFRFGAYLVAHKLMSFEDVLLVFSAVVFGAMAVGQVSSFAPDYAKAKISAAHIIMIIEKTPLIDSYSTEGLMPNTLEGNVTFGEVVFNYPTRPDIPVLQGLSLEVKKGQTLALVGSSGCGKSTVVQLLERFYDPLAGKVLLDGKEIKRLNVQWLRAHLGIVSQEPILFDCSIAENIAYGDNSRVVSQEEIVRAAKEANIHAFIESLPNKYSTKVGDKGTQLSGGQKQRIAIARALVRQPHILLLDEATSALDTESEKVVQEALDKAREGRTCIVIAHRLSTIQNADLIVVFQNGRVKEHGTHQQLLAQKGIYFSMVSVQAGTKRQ

Take `Cc1ccc(NC(=O)c2ccc(CN3CC[C@H](N(C)C)C3)c(C(F)(F)F)c2)cc1Nc1nccc(-c2cncnc2)n1` [bafetinib]: the EC50 at ABCB1 was 640 nM. Moreover, the IC50 on ABCG2 was found to be 2970 nM.
